According to patent publication US20240228543A1, “CYCLIC PEPTIDE INHIBITORS OF USP22” (THE JOHNS HOPKINS UNIVERSITY, priority 2021, published 2024):
Positions of bridges follow the written chain, without caps; N, C: chain ends. Non-standard residues stand in square brackets, D forms with d. Residues, ends and D or L forms follow the SMILES beside them.

Columns and labels:
[1] = target: T1, human DUB module (hDUBm; USP22, ATXN7, ATXN7L3, ENY2) (Homo sapiens, UniProt Q9UPT9); test: Ub-AMC deubiquitination assay, human DUB module; assay type: biochemical; details: 200 nM DUB, 1 μM Ub-AMC; read-out: Ki (apparent, Morrison approximation), Ub-AMC cleavage
T1 construct: 6xHis (TEV-cleavable) (N, cleaved yes); made in house; host or cells: High Five insect cells (baculovirus, Bac2Bac; virus amplified in Sf9)
Procedure: FIG. 2A is a graph of initial rates of Ub-AMC cleavage by hDUB module as a function of substrate concentration. […] FIGS. 2B-2G are graphs of each cyclic peptide, as indicated, tested for its ability to inhibit Ub-AMC cleavage in the presence of increasing amounts of the peptide into a reaction with a fixed amount of DUB (200 nM) and Ub-AMC (1 μM). Ki values were determined for each curve using the Morrison Ki approximation.
Ub-AMC deubiquitination assay A working stock mixture of either yDUBm or hDUBm was prepared in the presence of either DMSO (mock) or a dilution series of the cyclic peptide. […] Each enzyme:peptide mixture was incubated for 30 min at 30° C. in the case of yDUBm, and 37° C. in the case of hDUBm, with each enzyme complex at 1.033× the desired concentration (207 nM). The enzyme:peptide mixture ([…]) was added to 1 μL of 30 μM U b-AMC (7-amino-4-methylcoumarin) (Boston Biochem), for a final concentration of 200 nM DUBm, the indicated cyclic peptide concentration, and 1 μM Ub-AMC. DUB activity was measured by observing the increase in AMC fluorescence in a plate reader, and the initial rate of fluorescence increase was calculated and plotted as a function of inhibitor concentration (FIGS. 2B-2I). The Ki values were determined using the Morrison approximation of enzyme inhibition equilibria within Prism (Graphpad).
The cyclic peptides that constituted potential inhibitors were chemically synthesized by solid phase peptide synthesis and tested for their effectiveness and specificity as inhibitors in vitro. Since the enzyme kinetics of the human DUB module had not previously been characterized, hDUBm activity was assayed using the fluorogenic substrate, ubiquitin-amino methyl coumarin (Ub-AMC) (FIG. 2A).

[2] = tested on: H2B-Ub levels in HEK293T cells; test: Cell-based assay of H2B-Ub levels (histone extraction, western blot); set-up: species or system human; details: 5 μM, two hours, normalized to H3
Procedure: Bottom: anti-histone H3 loading control.
Cell-based Assay HEK293T cells were purchased from ATCC (CRL-3216) and cultures were expanded for at least 10 passages in Dulbecco's Modified Eagle Medium (DMEM) supplemented with 10% fetal bovine serum (FBS) in T75 flasks incubated in a 37° C. and 5% CO2 cabinet before any manipulation. Once cells were mature, HEK293T cells were grown to 80% confluence in 6-well plates, the media were aspirated, and media with reduced FBS (DMEM, 2% FBS) and 5 μM cyclic peptide were introduced. After two hours, the media were aspirated, and the cells were collected by scraping (˜1×10^6 cells per well). The cells were then washed in 1× PBS twice followed by histone extraction (Active Motif). The extracted histones were then western blotted for H2B-Ub levels (Cell Signaling, 5546S), using H3 western blotting (Abcam, ab1791) to normalize loading.
Each cyclic peptide was introduced as a supplement to the growth medium of HEK293T cells, the histones were extracted from each culture after two hours of exposure, and the levels of H2B-Ub was quantified by immunoblot. Levels of H2B-Ub were compared to control cells that were treated with DMSO, the yD1 cyclic peptide that has no effect on USP22 activity, or the broad-spectrum cell permeable DUB inhibitor. PR-619. The relative abundance of histone H3 was used to control for differences in nuclear extraction.

[3] = target: human DUB module (hDUBm) on H2B-K120 ubiquitinated nucleosomes (Homo sapiens, UniProt Q9UPT9); test: Deubiquitination of nucleosomal H2B by hDUBm; details: 1 μM cyclic peptide, 200 nM hDUBm, 1 uM H2B-Ub nucleosome
Procedure: Deubiquitination of nucleosomal H2B Recombinant human mononucleosomes containing histone H2B ubiquitinated at K120 (H2B-Ub) were obtained from Epicypher (dNuc, 16-0370) and diluted to 2 μM with reaction buffer. Both hDUBm and inhibitor peptides were diluted from concentrated stocks with reaction buffer (10 mM HEPES pH 7.5, 150 mM NaCl, 1 μM ZnCl2, and 0.2 mM TCEP) to a final concentration of 400 nM DUB module and 2 μM cyclic peptide and incubated at 37° C. for 20 minutes. Reactions were initiated by combining equal volumes of the enzyme-peptide mixture and nucleosomes, resulting in final concentrations of 200 nM hDUBm, 1 μM cyclic peptide, and 1 uM H2B-Ub nucleosome. Time points of the reaction were quenched with SDS sample buffer, separated by SDS-PAGE (Invitrogen, Bolt gels), and stained with Sypro Ruby (Life Technologies). Gels were imaged and quantitated (BioRad product info), using the H3 band as an independent load control to normalize the band intensities of H2B-Ub. Experiments were done in triplicate and analyzed using Prism (GraphPad).
To test the effectiveness of the inhibitors on a native-like substrate, the ability of each cyclic peptide to inhibit DUB activity on nucleosomes ubiquitinated at H2B-K120 was assayed.

[4] = Solubility in aqueous conditions; assay type: physicochemical

T1 sequence (Q9UPT9 whole entry): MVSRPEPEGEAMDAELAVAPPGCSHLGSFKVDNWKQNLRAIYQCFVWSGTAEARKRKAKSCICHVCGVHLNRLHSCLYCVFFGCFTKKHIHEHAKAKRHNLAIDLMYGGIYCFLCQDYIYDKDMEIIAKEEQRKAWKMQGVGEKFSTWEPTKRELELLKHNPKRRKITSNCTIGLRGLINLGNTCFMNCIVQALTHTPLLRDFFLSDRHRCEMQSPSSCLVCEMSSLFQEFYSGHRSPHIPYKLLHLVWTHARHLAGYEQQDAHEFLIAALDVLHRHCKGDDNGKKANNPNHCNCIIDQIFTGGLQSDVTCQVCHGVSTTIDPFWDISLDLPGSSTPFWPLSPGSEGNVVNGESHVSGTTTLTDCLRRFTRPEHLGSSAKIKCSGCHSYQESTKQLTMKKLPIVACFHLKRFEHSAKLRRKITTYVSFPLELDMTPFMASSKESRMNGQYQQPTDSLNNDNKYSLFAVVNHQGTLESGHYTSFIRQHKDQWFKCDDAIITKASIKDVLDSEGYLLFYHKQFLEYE
T1 sequence (O15265 3-151 partner limits assumed): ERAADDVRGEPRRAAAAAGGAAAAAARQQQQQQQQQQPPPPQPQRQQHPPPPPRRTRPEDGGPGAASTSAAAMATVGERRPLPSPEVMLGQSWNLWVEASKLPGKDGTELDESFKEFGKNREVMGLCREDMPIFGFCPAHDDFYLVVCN
T1 sequence (Q14CW9 whole entry partner): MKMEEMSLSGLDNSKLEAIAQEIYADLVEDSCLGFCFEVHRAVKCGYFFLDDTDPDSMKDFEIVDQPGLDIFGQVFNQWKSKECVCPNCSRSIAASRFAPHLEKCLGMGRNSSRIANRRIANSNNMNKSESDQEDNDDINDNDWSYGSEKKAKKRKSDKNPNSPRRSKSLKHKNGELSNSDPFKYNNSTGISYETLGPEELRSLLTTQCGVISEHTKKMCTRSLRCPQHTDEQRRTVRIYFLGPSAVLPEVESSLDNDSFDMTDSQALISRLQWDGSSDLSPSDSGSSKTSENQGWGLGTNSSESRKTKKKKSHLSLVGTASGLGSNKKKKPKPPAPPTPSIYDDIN
T1 sequence (Q9NPA8 whole entry partner): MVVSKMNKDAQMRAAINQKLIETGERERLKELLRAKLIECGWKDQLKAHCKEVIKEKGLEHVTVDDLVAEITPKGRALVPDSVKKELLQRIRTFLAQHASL
Chain of human DUB module (hDUBm) on H2B-K120 ubiquitinated nucleosomes (Q9UPT9 whole entry): as the sequence (Q9UPT9 whole entry) above
Chain of human DUB module (hDUBm) on H2B-K120 ubiquitinated nucleosomes (O15265 3-151 partner limits assumed): as the sequence (O15265 3-151 partner limits assumed) above
Chain of human DUB module (hDUBm) on H2B-K120 ubiquitinated nucleosomes (Q14CW9 whole entry partner): as the sequence (Q14CW9 whole entry partner) above
Chain of human DUB module (hDUBm) on H2B-K120 ubiquitinated nucleosomes (Q9NPA8 whole entry partner): as the sequence (Q9NPA8 whole entry partner) above

Compound | Ki [1] [µM] | further results
C[C@@H]1NC(=O)CNC(=O)[C@H](CCCNC(=N)N)NC(=O)[C@H](Cc2ccc(O)cc2)NC(=O)[C@H](CO)NC(=O)[C@H](Cc2c[nH]c3ccccc23)NC(=O)[C@H](CCC(N)=O)NC(=O)[C@H](Cc2c[nH]cn2)NC(=O)[C@@H](Cc2ccc(O)cc2)NC(=O)CSC[C@@H](C(N)=O)NC(=O)[C@H](CO)NC(=O)[C@H](CCCNC(=N)N)NC(=O)[C@H](Cc2ccc(O)cc2)NC(=O)[C@H]([C@@H](C)O)NC1=O [hD2] ({CH2CO}-[dY]HQWSYRGATYRSC-NH2; thioether N-14) | < 0.1 | 
N#CSc1cc(SC#N)c(N)nc1N [PR-619] |  | change of H2B-Ub levels [2]: minor increase
CC(C)C[C@@H]1NC(=O)[C@H](Cc2c[nH]c3ccccc23)NC(=O)[C@H](CO)NC(=O)[C@H](CCCNC(=N)N)NC(=O)[C@H](CC(C)C)NC(=O)[C@H](CCCNC(=N)N)NC(=O)[C@H](Cc2ccc(O)cc2)NC(=O)[C@H](Cc2ccc(O)cc2)NC(=O)[C@H](CO)NC(=O)[C@@H]2CCCN2C(=O)CNC(=O)[C@H](CC(N)=O)NC(=O)[C@@H](Cc2ccc(O)cc2)NC(=O)CSC[C@@H](C(N)=O)NC(=O)[C@H](CO)NC(=O)[C@H](CO)NC1=O [hD3] ({CH2CO}-[dY]NGPSYYRLRSWLSSC-NH2; thioether N-16) |  | inhibition of nucleosomal H2B-Ub cleavage by hDUBm [3]: inhibit the enzymatic activity
CC(C)C[C@@H]1NC(=O)[C@H](Cc2ccc(O)cc2)NC(=O)CSC[C@@H](C(N)=O)NC(=O)[C@H](Cc2ccc(O)cc2)NC(=O)[C@H](CC(C)C)NC(=O)[C@H](CCCNC(=N)N)NC(=O)[C@H](CC(C)C)NC(=O)[C@H](CO)NC(=O)[C@H](Cc2c[nH]c3ccccc23)NC(=O)CNC(=O)[C@H](Cc2ccccc2)NC(=O)[C@H](CO)NC(=O)[C@H](Cc2ccccc2)NC(=O)[C@H](C)NC(=O)[C@H](CO)NC(=O)[C@H](CC(=O)O)NC(=O)[C@H](Cc2c[nH]cn2)NC1=O [yL1] ({CH2CO}-YLHDSAFSFGWSLRLYC-NH2; thioether N-17) |  | solubility in aqueous conditions [4]: insoluble in aqueous conditions

Now from value to molecule, other results behind:

Ki [1] [µM] | Compound | further results
0.804 | CC[C@H](C)[C@@H]1NC(=O)[C@H](Cc2c[nH]c3ccccc23)NC(=O)[C@@H](Cc2ccc(O)cc2)NC(=O)CSC[C@@H](C(N)=O)NC(=O)[C@H](Cc2ccccc2)NC(=O)[C@H](CO)NC(=O)[C@H](CCCCN)NC(=O)[C@H](CO)NC(=O)[C@H](CC(C)C)NC(=O)CNC(=O)[C@H](CCCNC(=N)N)NC(=O)[C@H](Cc2ccc(O)cc2)NC(=O)[C@H](CO)NC(=O)[C@H](Cc2c[nH]cn2)NC(=O)[C@H]([C@@H](C)O)NC1=O [hD4] ({CH2CO}-[dY]WITHSYRGLSKSFC-NH2; thioether N-15) | 
< 0.1 | CC[C@H](C)[C@@H]1NC(=O)[C@H](Cc2c[nH]cn2)NC(=O)[C@H](CC(=O)O)NC(=O)[C@H](CO)NC(=O)[C@H](Cc2c[nH]c3ccccc23)NC(=O)[C@H](Cc2ccccc2)NC(=O)[C@H](CCCNC(=N)N)NC(=O)[C@H](Cc2ccccc2)NC(=O)[C@H](CC(N)=O)NC(=O)[C@H](CC(C)C)NC(=O)[C@H]([C@@H](C)O)NC(=O)[C@H](Cc2ccc(O)cc2)NC(=O)CSC[C@@H](C(N)=O)NC(=O)[C@H](CO)NC(=O)[C@H](Cc2ccc(O)cc2)NC(=O)[C@H](Cc2c[nH]c3ccccc23)NC(=O)[C@H](CO)NC1=O [hL1] ({CH2CO}-YTLNFRFWSDHISWYSC-NH2; thioether N-17) | 
